Experiments:
wtERBB2 (Her2 WT) = target: T1, wtERBB2 (Her2 WT) (Homo sapiens, UniProt P04626); experiment: HotSpot radiometric kinase activity assay, wtERBB2; settings: biochemical activity, 30 nM wtERBB2, 10 μM 33P-ATP, 2 hours
T1 construct: purchased Reaction Biology Kin-21-497
Procedure: (§1) The purpose of the wtERBB2, ERBB2-A775_G776insYVMA (ERBB2YVMA), wtEGFR biochemical assay was to evaluate the inhibition (% inhibition and IC50 values) of the small molecule inhibitors by using the “HotSpot” radiometric kinase activity assay. HotSpot assays monitor the production of kinase substrate by the radioactive gamma phosphate of adenosine triphosphate (33P-ATP) during biochemical reactions. HotSpot assays was performed in steps upon completion of the kinase reaction: deposition of a reaction mixture aliquot onto P81 ion exchange paper, extensive washing of the aforementioned P81 paper using phosphoric acid to remove unbound radiolabeled 33P-ATP from the P81 paper, and finally visualization and quantification of the dried P81 paper utilizing a phosphoimager. […] Typical reaction solutions (10 μL, final reaction volume) contained the following buffer conditions: 20 mM Hepes (pH 7.5), 10 mM MgCl2, 1 mM EGTA, 0.01% Brij35, 0.02 mg/mL BSA, 0.1 mM Na3VO4, 2 mM DTT, 1% DMSO. The assay was primed by preparing a fresh 0.2 mg/mL solution of pEY (Sigma Cat: P7244) substrate in the reaction buffer and supplementing that solution with […] of MnCl2 as substrate cofactor (Sigma Cat: M9522). The kinase of interest was then added to the solution at the appropriate concentration (30 nM wtERBB2 from, or 20 nM ERBB2YVMA, or 4 nM wtEGFR) and gently mixed prior to delivery of compound in 100% DMSO by acoustic dispensing (Beckman Echo550). Compound, Kinase, and substrate were allowed to incubate for 20 min at room temperature prior to the initiation of the reaction by addition of 33P-ATP (PerkinElmer Cat: NEG602, final conc 10 μM). […] IC50 determinations were made from a plot of kinase activity as a function of inhibitor concentration fit to the 4-parameter IC50 equation with the enzyme concentration held constant using GraphPad Prism (San Diego).

[1] = target: T2, ERBB2-A775_G776insYVMA (ERBB2YVMA) (Homo sapiens, UniProt P04626, INS775YVMA); experiment: HotSpot radiometric kinase activity assay, ERBB2YVMA; settings: biochemical activity, 20 nM ERBB2YVMA, 10 μM 33P-ATP, 2 hours, read-out: HER2 - YVMA IC50
T2 construct: purchased SignalChem E27-13BG
T2 sequence (P04626 with tags, fused parts or gaps INS775YVMA limits assumed): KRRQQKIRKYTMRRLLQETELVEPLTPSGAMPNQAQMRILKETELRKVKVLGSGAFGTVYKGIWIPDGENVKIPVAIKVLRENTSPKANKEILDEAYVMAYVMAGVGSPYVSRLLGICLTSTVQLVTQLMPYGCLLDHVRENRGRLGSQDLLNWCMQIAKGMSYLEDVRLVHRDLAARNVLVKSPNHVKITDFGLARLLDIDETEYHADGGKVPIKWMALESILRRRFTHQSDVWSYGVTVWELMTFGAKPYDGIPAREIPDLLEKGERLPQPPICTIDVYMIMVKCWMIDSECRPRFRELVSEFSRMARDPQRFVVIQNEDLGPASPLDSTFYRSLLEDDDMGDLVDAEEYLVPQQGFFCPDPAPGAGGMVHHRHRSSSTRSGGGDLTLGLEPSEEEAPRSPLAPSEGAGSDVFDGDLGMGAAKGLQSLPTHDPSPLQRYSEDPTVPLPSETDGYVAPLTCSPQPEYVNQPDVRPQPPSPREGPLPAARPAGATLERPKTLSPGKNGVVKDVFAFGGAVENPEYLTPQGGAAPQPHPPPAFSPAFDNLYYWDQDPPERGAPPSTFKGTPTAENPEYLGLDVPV
Procedure: as §1

wtEGFR = target: T3, wtEGFR (Homo sapiens, UniProt P00533); experiment: HotSpot radiometric kinase activity assay, wtEGFR; settings: biochemical activity, 4 nM wtEGFR, 10 μM 33P-ATP, 2 hours, read-out: EGFR WT IC50
T3 construct: purchased Invitrogen PR7295B
T3 sequence (P00533 25-1210): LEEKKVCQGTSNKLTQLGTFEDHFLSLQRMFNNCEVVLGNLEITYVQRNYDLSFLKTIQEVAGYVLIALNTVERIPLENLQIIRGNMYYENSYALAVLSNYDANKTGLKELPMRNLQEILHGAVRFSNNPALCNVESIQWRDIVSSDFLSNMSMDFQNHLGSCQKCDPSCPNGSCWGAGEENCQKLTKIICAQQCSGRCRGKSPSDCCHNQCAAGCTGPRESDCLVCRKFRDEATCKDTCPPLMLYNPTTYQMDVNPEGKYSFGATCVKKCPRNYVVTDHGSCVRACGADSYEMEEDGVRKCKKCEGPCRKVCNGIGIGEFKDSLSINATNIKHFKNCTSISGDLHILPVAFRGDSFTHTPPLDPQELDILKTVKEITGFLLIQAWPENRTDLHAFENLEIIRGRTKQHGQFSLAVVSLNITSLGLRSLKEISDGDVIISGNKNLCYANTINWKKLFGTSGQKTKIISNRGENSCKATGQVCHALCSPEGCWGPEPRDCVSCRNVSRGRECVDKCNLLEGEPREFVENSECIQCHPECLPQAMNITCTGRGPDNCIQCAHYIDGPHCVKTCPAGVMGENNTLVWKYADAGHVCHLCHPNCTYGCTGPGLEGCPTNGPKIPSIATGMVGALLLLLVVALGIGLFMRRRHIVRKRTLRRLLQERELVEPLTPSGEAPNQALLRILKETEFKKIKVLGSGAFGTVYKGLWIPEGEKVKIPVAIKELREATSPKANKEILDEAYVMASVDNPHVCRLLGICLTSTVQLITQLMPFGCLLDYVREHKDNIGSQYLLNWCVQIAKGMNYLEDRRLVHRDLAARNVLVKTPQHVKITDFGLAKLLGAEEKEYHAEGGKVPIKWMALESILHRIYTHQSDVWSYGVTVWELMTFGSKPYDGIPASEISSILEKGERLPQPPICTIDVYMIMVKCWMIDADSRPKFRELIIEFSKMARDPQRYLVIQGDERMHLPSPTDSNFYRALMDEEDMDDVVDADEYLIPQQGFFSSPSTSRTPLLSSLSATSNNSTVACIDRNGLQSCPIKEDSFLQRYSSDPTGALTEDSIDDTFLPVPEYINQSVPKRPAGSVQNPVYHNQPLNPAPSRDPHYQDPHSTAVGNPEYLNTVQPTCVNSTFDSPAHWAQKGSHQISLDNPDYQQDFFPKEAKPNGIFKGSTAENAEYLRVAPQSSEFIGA
Procedure: as §1

BaF3_HER2WT cells = BaF3_HER2WT cells (Homo sapiens, UniProt P04626); experiment: Cell growth inhibition assay (CellTiterGlo), BaF3_HER2WT; type: cell-based; settings: 3-day treatment, CellTiterGlo, read-out: Cell growth inhibition activity, HER2 WT
BaF3_HER2YVMA cells = BaF3_HER2YVMA cells (Homo sapiens, UniProt P04626, DUP772-775, cells depend on it); experiment: Cell growth inhibition assay (CellTiterGlo), BaF3_HER2YVMA; type: cell-based; settings: 3-day treatment, CellTiterGlo, read-out: Cell growth inhibition activity, HER2 - YVMA
BaF3_EGFRWT cells = BaF3_EGFRWT cells (Homo sapiens, UniProt P00533); experiment: Cell growth inhibition assay (CellTiterGlo), BaF3_EGFRWT; type: cell-based; settings: 3-day treatment, CellTiterGlo, read-out: Cell growth inhibition activity, EGFR WT
Sequence of BaF3_EGFRWT cells (P00533 whole entry, change not shown): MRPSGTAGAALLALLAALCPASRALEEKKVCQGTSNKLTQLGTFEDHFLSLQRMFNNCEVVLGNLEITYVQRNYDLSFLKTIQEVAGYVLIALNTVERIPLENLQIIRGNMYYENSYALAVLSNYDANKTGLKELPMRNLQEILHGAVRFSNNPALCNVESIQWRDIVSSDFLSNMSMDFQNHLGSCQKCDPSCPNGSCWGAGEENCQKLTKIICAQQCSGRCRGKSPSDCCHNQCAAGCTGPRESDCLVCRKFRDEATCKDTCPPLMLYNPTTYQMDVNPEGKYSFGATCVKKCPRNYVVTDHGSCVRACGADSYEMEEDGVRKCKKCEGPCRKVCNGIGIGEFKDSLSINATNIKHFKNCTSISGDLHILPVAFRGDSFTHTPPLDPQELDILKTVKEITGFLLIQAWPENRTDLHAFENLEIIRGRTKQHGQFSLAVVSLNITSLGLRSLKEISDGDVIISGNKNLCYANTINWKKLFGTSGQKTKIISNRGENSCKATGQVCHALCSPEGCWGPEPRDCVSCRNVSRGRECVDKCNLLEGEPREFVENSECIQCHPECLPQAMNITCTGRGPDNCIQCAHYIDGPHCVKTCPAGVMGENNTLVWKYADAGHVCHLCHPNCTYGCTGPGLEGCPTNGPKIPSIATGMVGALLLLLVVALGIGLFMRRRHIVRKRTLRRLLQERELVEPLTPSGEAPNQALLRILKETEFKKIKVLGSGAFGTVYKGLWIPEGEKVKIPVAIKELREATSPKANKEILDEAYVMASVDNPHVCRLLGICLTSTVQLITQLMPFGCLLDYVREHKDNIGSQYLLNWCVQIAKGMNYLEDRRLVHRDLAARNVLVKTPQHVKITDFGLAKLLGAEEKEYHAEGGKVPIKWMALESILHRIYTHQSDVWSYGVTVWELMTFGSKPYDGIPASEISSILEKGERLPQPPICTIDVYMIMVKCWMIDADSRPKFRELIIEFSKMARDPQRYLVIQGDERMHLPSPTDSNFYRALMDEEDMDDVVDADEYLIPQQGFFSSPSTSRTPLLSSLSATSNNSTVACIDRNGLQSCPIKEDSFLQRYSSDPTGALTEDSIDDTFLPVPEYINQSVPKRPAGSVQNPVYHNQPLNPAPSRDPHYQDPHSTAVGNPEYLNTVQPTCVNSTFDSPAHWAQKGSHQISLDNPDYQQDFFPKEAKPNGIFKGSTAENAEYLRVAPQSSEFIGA

T1 sequence (P04626 23-1255): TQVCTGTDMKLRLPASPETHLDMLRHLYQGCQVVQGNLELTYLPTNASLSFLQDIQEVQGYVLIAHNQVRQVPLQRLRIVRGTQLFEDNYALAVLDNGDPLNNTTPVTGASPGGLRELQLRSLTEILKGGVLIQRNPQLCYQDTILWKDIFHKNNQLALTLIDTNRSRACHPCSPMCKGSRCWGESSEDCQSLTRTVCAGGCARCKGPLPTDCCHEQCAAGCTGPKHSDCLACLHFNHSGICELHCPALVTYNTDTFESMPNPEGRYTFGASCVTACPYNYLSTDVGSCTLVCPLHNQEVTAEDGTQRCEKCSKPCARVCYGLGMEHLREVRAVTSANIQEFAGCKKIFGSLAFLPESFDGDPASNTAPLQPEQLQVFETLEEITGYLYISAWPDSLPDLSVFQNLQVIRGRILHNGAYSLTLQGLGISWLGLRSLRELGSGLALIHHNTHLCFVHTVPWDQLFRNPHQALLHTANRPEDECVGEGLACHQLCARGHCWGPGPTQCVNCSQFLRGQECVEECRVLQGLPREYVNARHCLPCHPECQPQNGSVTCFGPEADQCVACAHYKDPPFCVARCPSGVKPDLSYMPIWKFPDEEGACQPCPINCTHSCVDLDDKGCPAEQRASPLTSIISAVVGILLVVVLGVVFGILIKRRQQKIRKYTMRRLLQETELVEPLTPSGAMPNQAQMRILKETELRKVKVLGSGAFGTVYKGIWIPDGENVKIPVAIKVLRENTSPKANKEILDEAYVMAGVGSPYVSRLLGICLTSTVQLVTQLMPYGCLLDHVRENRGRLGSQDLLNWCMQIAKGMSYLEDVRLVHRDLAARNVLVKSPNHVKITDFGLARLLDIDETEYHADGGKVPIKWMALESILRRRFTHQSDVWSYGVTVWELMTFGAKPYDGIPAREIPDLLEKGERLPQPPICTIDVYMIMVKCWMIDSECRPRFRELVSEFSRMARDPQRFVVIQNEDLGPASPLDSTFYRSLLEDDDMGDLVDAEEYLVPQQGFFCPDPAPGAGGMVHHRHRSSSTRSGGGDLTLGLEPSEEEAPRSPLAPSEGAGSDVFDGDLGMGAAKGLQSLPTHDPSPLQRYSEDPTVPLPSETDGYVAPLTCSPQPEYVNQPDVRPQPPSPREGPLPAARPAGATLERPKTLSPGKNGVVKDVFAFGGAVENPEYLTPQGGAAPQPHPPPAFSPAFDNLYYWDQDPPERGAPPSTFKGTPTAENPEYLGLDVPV

Row | IC50 (wtERBB2 (Her2 WT)) | IC50 [1] | IC50 (wtEGFR) | GI50 (BaF3_HER2WT cells) | GI50 (BaF3_HER2YVMA cells) | GI50 (BaF3_EGFRWT cells) | SMILES
1 | < 200 nM | < 200 nM | 1500 to 5000 nM | < 200 nM | < 200 nM | 1500 to 5000 nM | C=CC(=O)NC1CCN(C(=O)c2ccn3ncnc(Nc4ccc(Oc5ccn6ncnc6c5)c(C)c4)c23)C1 (stereo not drawn) [Example 4, N-(1-(4-((4-([1,2,4]triazolo[1,5-a]pyridin-7-yloxy)-3-methylphenyl)amino)pyrrolo[2,1-f][1,2,4]triazine-5-carbonyl)pyrrolidin-3-yl)acrylamide]
2 | 1500 to 5000 nM | 1500 to 5000 nM | 1500 to 5000 nM | 1500 to 5000 nM | > 5000 nM | 1500 to 5000 nM | Cc1cc(Nc2c(C#N)cnn3ccc(C4CN(C(=O)/C=C/CN(C)C)C4)c23)ccc1Oc1ccn2ncnc2c1 [Example 86, (E)-4-((4-([1,2,4]triazolo[1,5-a]pyridin-7-yloxy)-3-methylphenyl)amino)-5-(1-(4-(dimethylamino)-but-2-enoyl)azetidin-3-yl)pyrrolo[1,2-b]pyridazine-3-carbonitrile]
3 | 200 to 500 nM | 500 to 1500 nM | 1500 to 5000 nM | 500 to 1500 nM | 1500 to 5000 nM | 1500 to 5000 nM | Cc1cc(Nc2ncnn3cnc(C4CCN(C(=O)/C=C/CN(C)C)CC4)c23)ccc1Oc1ccn2ncnc2c1 [Example 88, (E)-1-(4-(4-((4-([1,2,4]triazolo[1,5-a]pyridin-7-yloxy)-3-methylphenyl)amino)imidazo[5,1-f][1,2,4]triazin-5-yl)piperidin-1-yl)-4-(dimethylamino)but-2-en-1-one]
4 | 1500 to 5000 nM | 1500 to 5000 nM | 1500 to 5000 nM | 1500 to 5000 nM | 1500 to 5000 nM | 1500 to 5000 nM | CN(C)C/C=C/C(=O)N1CC(c2ccn3ncnc(Nc4cnc(Oc5cccc(C(F)(F)F)c5)c(Cl)c4)c23)C1 [Example 90, (E)-1-(3-(4-((5-chloro-6-(3-(trifluoromethyl)phenoxy)pyridin-3-yl)amino)pyrrolo[2,1-f][1,2,4]triazin-5-yl)azetidin-1-yl)-4-(dimethylamino)but-2-en-1-one]

Reference: patent US20240132521A1, “COMPOUNDS AND METHODS FOR MODULATING HER2” (Iambic Therapeutics, Inc., priority 2022, published 2024)
